{"source": "patent US20020090352A1", "about": "“Compositions and methods for use in modulating immune system function” (priority 2000, published 2002)", "key": {"[1]": {"test_system": "immature LC (Langerhans cells)", "experiment": "Activation of immature LC: HLA-DR and CD86 expression by flow cytometry", "type": "cell-based, human", "parameters": "class II or CD86 upregulation on immature LC: dose or concentration left out as unconfirmed", "settings": "for activation of immature LC (class II / CD86, DRhi-CD86hi) in the presence of TNFα: TNFα 1-10 ng/ml", "experimental": "Immature LC were cultured with retinol or vehicle and/or TNFα for 40 h. Cells were washed and incubated with HLA-DR-FITC and CD86-PE or isotype controls for 15 min at 4° C. 10^4 events were then analyzed with a FACScalibur (Becton Dickinson) using CellQuest software (Becton Dickinson). % are given for DRhi CD86hi cells gated as indicated. Data are representative of three experiments on different donors.\nFIG. 3A: Day 6 immature LC were cultured for 40 h with TNFα and/or retinoids or vehicle as indicated. Cells were washed and stained with HLA-DR-FITC and CD86-PE or isotype controls for 15 min at 4° C. 10^4 events were then analyzed with a FACScalibur (Becton Dickinson) using CellQuest software (Becton Dickinson). Data are given for DRhi/CD86 hi cells gated as indicated, and are representative of 10 experiments on different donors.\nPercentages of DRhi/CD86 hi cells are represented and results are expressed as the mean±SD of at last three experiments on different donors.\nFlow Cytometry Analysis. 1×10^5 cells were incubated in 96-well plates (Becton Dickinson Labware, Franklin Lakes, N.J.) for 15 min at 4 ° C. in PBS, 2% human AB serum, and 0.01 M NaN3, with FITC-conjugated anti-DR (Immunotech, Marseille, France) and PE-conjugated CD86 (Pharmingen, San Diego, Calif.) at the appropriate concentration, or with control isotype-matched irrelevant mAbs at the same concentration. After washing, 10^4 events were analyzed with a FACScalibur (Becton Dickinson Immunocytometry Systems, Mountain View, Calif.) using CellQuest software."}, "RARα AF2": {"target": "T1, RARα AF2 (Homo sapiens, UniProt P10276)", "T1 construct": "expressed in transfected cells", "T1 sequence (P10276 183-417 limits assumed)": "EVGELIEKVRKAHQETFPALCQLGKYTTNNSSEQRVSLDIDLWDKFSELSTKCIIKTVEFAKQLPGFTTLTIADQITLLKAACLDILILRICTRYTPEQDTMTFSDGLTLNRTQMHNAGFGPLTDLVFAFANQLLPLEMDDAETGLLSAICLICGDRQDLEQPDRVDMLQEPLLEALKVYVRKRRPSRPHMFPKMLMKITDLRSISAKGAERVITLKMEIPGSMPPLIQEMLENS", "settings": "retinoid activity, reporter cells; cited from earlier work"}, "T-cells stimulated by LC": {"test_system": "T-cells stimulated by LC", "type": "cell-based, human"}, "RARα-RXRα heterodimer": {"target": "T2, RARα-RXRα heterodimer (Homo sapiens, UniProt P10276+P19793)", "T2 construct": "expressed in transfected cells", "T2 sequence (P10276 1-462)": "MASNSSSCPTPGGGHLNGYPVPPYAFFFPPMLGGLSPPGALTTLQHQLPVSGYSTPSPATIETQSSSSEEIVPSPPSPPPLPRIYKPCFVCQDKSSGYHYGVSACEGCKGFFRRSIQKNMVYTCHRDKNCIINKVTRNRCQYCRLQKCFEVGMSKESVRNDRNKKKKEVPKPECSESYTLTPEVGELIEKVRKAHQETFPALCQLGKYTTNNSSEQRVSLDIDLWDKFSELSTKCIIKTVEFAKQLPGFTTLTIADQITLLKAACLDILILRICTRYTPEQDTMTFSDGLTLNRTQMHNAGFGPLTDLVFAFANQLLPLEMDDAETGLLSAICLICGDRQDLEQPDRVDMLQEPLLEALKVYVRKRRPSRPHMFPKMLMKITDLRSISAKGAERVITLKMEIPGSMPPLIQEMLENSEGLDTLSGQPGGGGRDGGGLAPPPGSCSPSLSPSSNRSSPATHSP", "T2 sequence (P19793 1-462)": "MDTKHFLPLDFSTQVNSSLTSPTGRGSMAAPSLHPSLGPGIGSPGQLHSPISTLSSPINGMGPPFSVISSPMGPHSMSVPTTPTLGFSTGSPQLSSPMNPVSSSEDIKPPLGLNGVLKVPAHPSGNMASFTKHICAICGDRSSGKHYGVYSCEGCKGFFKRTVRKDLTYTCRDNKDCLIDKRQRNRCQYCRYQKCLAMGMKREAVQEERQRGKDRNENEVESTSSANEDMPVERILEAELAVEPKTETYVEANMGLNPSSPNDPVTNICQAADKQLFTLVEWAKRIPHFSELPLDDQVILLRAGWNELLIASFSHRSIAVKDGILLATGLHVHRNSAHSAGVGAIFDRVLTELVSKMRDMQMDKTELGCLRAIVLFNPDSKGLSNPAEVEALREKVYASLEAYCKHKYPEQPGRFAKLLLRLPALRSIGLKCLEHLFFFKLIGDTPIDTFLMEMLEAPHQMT", "settings": "retinoid activity, transient transfection; cited from earlier work"}, "NF-κB complexes": {"test_system": "NF-κB complexes", "experiment": "Electrophoretic mobility shift assay of nuclear NF-κB complexes in immature LC", "type": "cell-based, human", "settings": "retinoid 1 μM 6 h, then TNFα 50 ng/ml 30 min; result in words"}, "[2]": {"test_system": "immature LC (Langerhans cells)", "experiment": "Apoptosis of immature LC, flow cytometry of PI stained nuclei (sub 2N particles) / annexin V", "type": "cell-based, human", "settings": "for induction of apoptosis / death of immature LC by the substance on its own: no TNFα"}, "RARγ AF2": {"target": "T3, RARγ AF2 (Homo sapiens, UniProt P13631)", "T3 construct": "expressed in transfected cells", "T3 sequence (P13631 185-419 limits assumed)": "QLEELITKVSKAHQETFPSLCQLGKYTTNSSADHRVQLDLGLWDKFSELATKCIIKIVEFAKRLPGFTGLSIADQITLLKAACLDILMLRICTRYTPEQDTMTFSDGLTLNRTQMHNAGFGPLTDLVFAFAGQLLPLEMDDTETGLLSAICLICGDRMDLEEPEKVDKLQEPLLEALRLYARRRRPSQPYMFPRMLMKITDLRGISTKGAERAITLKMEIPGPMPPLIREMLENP", "settings": "retinoid activity, reporter cells; cited from earlier work"}, "RARβ AF2": {"target": "T4, RARβ AF2 (Homo sapiens, UniProt P10826)", "T4 construct": "expressed in transfected cells", "T4 sequence (P10826 183-417 limits assumed)": "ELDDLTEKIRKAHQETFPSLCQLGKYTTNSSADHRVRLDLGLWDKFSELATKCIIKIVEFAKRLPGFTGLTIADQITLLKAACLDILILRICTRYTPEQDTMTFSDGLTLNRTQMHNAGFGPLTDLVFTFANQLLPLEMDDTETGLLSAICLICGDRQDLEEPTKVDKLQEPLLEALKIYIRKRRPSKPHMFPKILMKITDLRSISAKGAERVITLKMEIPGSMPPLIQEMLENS", "settings": "retinoid activity, reporter cells; cited from earlier work"}, "RXR AF2": {"test_system": "RXR AF2", "settings": "retinoid activity, reporter cells; cited from earlier work"}, "RXRα homodimer [(RXR)2]": {"target": "T5, RXRα homodimer [(RXR)2] (Homo sapiens, UniProt P19793)", "T5 construct": "expressed in transfected cells", "T5 sequence (P19793 1-462)": "T2 sequence (P19793 1-462)", "settings": "retinoid activity, transient transfection; cited from earlier work"}, "in vitro": {"experiment": "in vitro", "settings": "human"}, "[3]": {"test_system": "immature LC (Langerhans cells)", "experiment": "Survival of immature LC, viable cell count with trypan blue exclusion", "settings": "1000 nM tRA; Compound II 1000 nM, Z-Vad-fmk 50 nM"}, "[4]": {"settings": "1 nM, two days in culture, mean ± SD"}, "[5]": {"settings": "10 nM, two days in culture, mean ± SD"}, "[6]": {"settings": "100 nM, two days in culture, mean ± SD"}, "[7]": {"settings": "1 μM, two days in culture, mean ± SD"}}, "note": "Entries after “also recorded” stand apart in the source; their conditions may differ. Marks after values point to notes of the source that are not given here. Peptide text beside a SMILES is read from it. * marks the point of attachment. Cbz = O=C(OCc1ccccc1)*; CH2F = FC*; on RARα AF2: key: '+' = agonist; '(+)' = weak agonist; '−' = antagonist; '0' = absence of agonist and antagonist activities; on RARα-RXR DR5: key: '+' = agonist; '(+)' = weak agonist; '−' = antagonist; '0' = absence of agonist and antagonist activities; on RARβ AF2: key: '+' = agonist; '(+)' = weak agonist; '−' = antagonist; '0' = absence of agonist and antagonist activities; on RARγ AF2: key: '+' = agonist; '(+)' = weak agonist; '−' = antagonist; '0' = absence of agonist and antagonist activities"}
{"smiles": "CC1(C)CCC(C)(C)c2cc(C3(c4ccc(C(=O)O)cc4)OCCO3)ccc21", "note": "[SR11237, 4-[2-(5,6,7,8-tetrahydro-5,5,8,8-tetramethyl-2-naphthalenyl)-1,3-dioxolan-2-yl]benzoic acid, reference compound]", "values": [{"measurement": "activation of immature LC (class II / CD86, DRhi-CD86hi) in the presence of TNFα", "setting": "[1]; result in words", "result": "also synergized with TNFα; also recorded: upregulate"}, {"measurement": "RARα AF2", "setting": "RARα AF2", "result": 0}, {"measurement": "enhancement of antigen presentation to antigen-specific T-cells in synergy with TNFα", "setting": "T-cells stimulated by LC", "result": "synergized with TNFα"}, {"measurement": "RARα-RXR DR5", "setting": "RARα-RXRα heterodimer", "result": 0}, {"measurement": "nuclear translocation / DNA-binding activity of NF-κB complexes with TNFα", "setting": "NF-κB complexes", "result": "synergize with TNFα"}, {"measurement": "percentage of apoptotic (<2N) particles", "setting": "[2]; [4]", "result": "≦5%"}, {"measurement": "percentage of apoptotic (<2N) particles", "setting": "[2]; [5]", "result": "≦5%"}, {"measurement": "percentage of apoptotic (<2N) particles", "setting": "[2]; [6]", "result": "≦5%"}, {"measurement": "percentage of apoptotic (<2N) particles", "setting": "[2]; [7]", "result": "≦5%"}, {"measurement": "induction of apoptosis / death of immature LC by the substance on its own", "setting": "[2]; result in words", "result": "neither SR11237 (Table 3) nor BMS749 exhibited an apoptotic effect"}, {"measurement": "induction of apoptosis / death of immature LC by the substance on its own", "setting": "[2]; result in words, listed as SR1 1237", "result": "had no effects on its own"}, {"measurement": "synergy with the pan-RXR agonist SR11237 to induce LC death", "setting": "[2]; result in words", "result": "asynergistic effect on LC death induced by the selective RARα agonist"}, {"measurement": "RARγ AF2", "setting": "RARγ AF2", "result": 0}, {"measurement": "RARβ AF2", "setting": "RARβ AF2", "result": 0}, {"measurement": "RXR AF2", "setting": "RXR AF2", "result": "+"}, {"measurement": "(RXR)2 AF2", "setting": "RXRα homodimer [(RXR)2]", "result": "+"}]}
{"smiles": "CC1=C(/C=C/C(C)=C/C=C/C(C)=C/CO)C(C)(C)CCC1", "note": "[Rol, retinol]", "values": [{"measurement": "minimum effective dose for significant LC activation", "setting": "[1]", "result": 1, "unit": "µM"}, {"measurement": "synergy with IL-1β to activate LC", "setting": "[1]; IL-1β 1-10 ng/ml, result in words", "result": "synergized with IL-1β"}, {"measurement": "activation of immature LC (class II / CD86, DRhi-CD86hi) in the presence of TNFα", "setting": "[1]; result in words, listed as Retinol", "result": "synergize with TNFα; also recorded: upregulate"}, {"measurement": "activation of immature LC (class II / CD86, DRhi-CD86hi) in the presence of TNFα", "setting": "[1]; result in words, listed as retinol", "result": "synergized with TNFα"}, {"measurement": "class II or CD86 upregulation on immature LC", "setting": "[1]; in the absence or at low concentrations of TNFα", "result": "did not significantly induce"}, {"measurement": "allogeneic T-lymphocyte proliferation (MLR)", "setting": "T-cells stimulated by LC", "result": "increase alloreactive proliferative response"}, {"measurement": "cytotoxicity at 2 days, 1 μM", "setting": "in vitro", "result": 20, "unit": "%"}, {"measurement": "cytotoxicity at 3 days, 1 μM", "setting": "in vitro", "result": 40, "unit": "%"}, {"measurement": "percentage of apoptotic (<2N) particles", "setting": "[2]; [4]", "result": "≦5^(a) %"}, {"measurement": "percentage of apoptotic (<2N) particles", "setting": "[2]; [5]", "result": "≦5%"}, {"measurement": "percentage of apoptotic (<2N) particles", "setting": "[2]; [6]", "result": "≦5%"}, {"measurement": "percentage of apoptotic (<2N) particles", "setting": "[2]; [7]", "result": "17±8", "unit": "%"}, {"measurement": "percentage of apoptotic (<2N) particles", "setting": "[2]; Table 3C, retinoid 1 μM in medium, no inhibitor", "result": "17 ± 8", "unit": "%"}, {"measurement": "induction of apoptosis / death of immature LC by the substance on its own", "setting": "[2]; result in words", "result": "increased"}]}
{"smiles": "COC(=O)C[C@H](NC(=O)[C@H](C)NC(=O)[C@@H](NC(=O)OCc1ccccc1)C(C)C)C(=O)CF", "note": "[Z-Vad-fmk, reference compound] (Cbz-Val-Ala-Asp(OMe)-CH2F)", "values": [{"measurement": "inhibition of tRA mortality", "setting": "[3]", "result": "> 80", "unit": "%"}, {"measurement": "percentage of apoptotic (<2N) particles", "setting": "[2]; agent + Cmpd. I 1 μM, Cmpd. II 1 μM, Cmpd. VIII 1 μM, Z-Vad 50 μM, TNFα 10 ng/ml, CD40L coculture", "result": "9 ± 7", "unit": "%"}, {"measurement": "percentage of apoptotic (<2N) particles", "setting": "[2]; agent + Compound I 100 nM + SR11237 100 nM, Cmpd. II 1 μM, Cmpd. VIII 1 μM, Z-Vad 50 μM, TNFα 10 ng/ml, CD40L coculture", "result": "11 ± 4", "unit": "%"}, {"measurement": "percentage of apoptotic (<2N) particles", "setting": "[2]; agent + tRA 1 μM, Cmpd. II 1 μM, Cmpd. VIII 1 μM, Z-Vad 50 μM, TNFα 10 ng/ml, CD40L coculture", "result": "9 ± 4", "unit": "%"}, {"measurement": "percentage of apoptotic (<2N) particles", "setting": "[2]; agent alone (column 0), Cmpd. II 1 μM, Cmpd. VIII 1 μM, Z-Vad 50 μM, TNFα 10 ng/ml, CD40L coculture", "result": "≦5%"}, {"measurement": "inhibition of retinoid-induced apoptosis / cell death of immature LC", "setting": "[2]; result in words", "result": "blocked"}]}
